These results are taken from patent US9163077B2, “RhoC-based immunotherapy” (RHOVAC APS, priority 2007, dated 2015).

One experiment deals with HLA-A3 (Homo sapiens, UniProt P04439). The experiment in a line: Assembly assay for peptide binding to MHC class I molecules. As to conditions: HLA-A3, lysate of T2-A3 cells, FIG. 2; read-out: peptide concentration required for half maximal recovery of class I MHC molecules (C50 value). The protocol:
The binding affinity of the synthetic peptides (Genscript, Scotch Plains, US) to HLA-A3 molecules was measured by means of the assembly assay as described (13). The assay is based on the stabilization of the class I molecule after loading of different concentrations of peptide to the TAP-deficient cell line T2-A3. Briefly, T2-A3 cells were incubated in methionine-free RPMI 1640 (Gibco BRL, Paisley, UK) with 10% dialysed FCS. Subsequently, cells were metabolically labelled with 50 μCi ^35S-methionine (Amersham, Birkeroed, Denmark). […] Cell nuclei were removed by ultracentrifugation. The supernatant of T2-A3 cells was heated for 5 min at 45° C. in order to reduce background signals by preferentially destabilizing empty HLA-A3. The samples were precleared by addition of Pansorbin (Calbiochem, Darmstadt, Germany) and left on rotation overnight. Stably folded HLA molecules were immune-precipitated using the HLA class I-specific, conformation-dependent mAb W6/32. A-Sepharose beads were added to collect the folded MHC complexes and separated by isoelectric focusing gel electropheresis. MHC heavy chains were quantified using the ImageGauge Phosphorimager program (FUJI Photo Film). The intensity of the band is directly related to the amount of peptide-bound class I MHC complex recovered during the assay. Subsequently, the extent of stabilization of HLA-A3 is directly related to the binding affinity of the added peptide. The C50-value was calculated for each peptide as the peptide concentration sufficient for half maximal stabilization.

The subject of another experiment is T2-A3 cells. The experiment in a line: 51Cr-release cytotoxicity assay, peptide-pulsed T2-A3 target cells. The class given is cell-based, human. The settings on record: for lysis of peptide-pulsed T2-A3 cells by CTL clone 9: FIG. 4b; for lysis of peptide-pulsed T2-A3 cells by Rho1L2-stimulated CTL bulk cultures: bulk culture from MM patient after four restimulations, FIG. 4a, unpulsed cells not lysed. As to the method:
(§1) PBL from a melanoma (MM) patient were stimulated with irradiated (20 Gy) autologous Rho1L2-loaded DC (PBL:DC ratio=3×10^6:3×10^5). The following day 120 U/ml IL-2 (PeproTech, London, UK) was added. Stimulation of the cultures were carried out every 10 days with Rho1L2-loaded irradiated autologous DC (2×) followed by Rho1L2-loaded irradiated autologous PBL (3×). Hundred and twenty U/ml IL-2 (PeproTech, London, UK) was added after each stimulation. After one month growing cultures were tested for specificity for Rho1L2.
(§2) PBL from a specific culture were cloned by limiting dilution in the presence of cloning mix containing 10^6/ml irradiated (20 Gy) lymphocytes from three healthy donors in X-vivo with 5% heat-inactivated human serum, 25 mM HEPES buffer (GibcoBRL, Paisley, UK), and 120 U/ml IL-2 (PeproTech, London, UK). The plates were incubated at 37° C./5% CO2. Every 3-4 days 50 μl fresh media were added containing IL-2 to a final concentration of 120 U/ml. Growing clones were expanded using cloning mix cells (5×10^4 cells/well) and IL-2. After expansion the clones were tested for specificity and cytotoxic potential in a standard ^51Cr-release assay.
Conventional ^51Cr-release assays for CTL-mediated cytotoxicity were carried out as described elsewhere (Andersen et al., (1999) J Immunol 163:3812-3818). Target cells were T2-A3 cells, the HLA-A3^+ breast cancer cell line BT-20, the HLA-A3^+ colon cancer cell line HT-29, the HLA-A3^+ head and neck cancer cell line CRL-2095 (all available at the American Type Culture Collection (ATCC)), the HLA-A3^+ melanoma cell line FM9, the HLA-A3^− melanoma cell line FM82, and the HLA-A3^+ melanoma cell line FM3 (Kirkin et al., (1995) Cancer Immunol Immunother 41: 71-81), with or without added HLA specific mAb W6/32 (Barnstable et al., (1978) Cell 14: 9-20) (2 μg/100 μl) (Schmidt et al., (2003) Blood 102: 571-576) or the HLA-A3 specific antibody GAPA3 (Sire et al., (1988) 140: 2422-2430).

Experiment [1] deals with peptide epitope-specific INF-γ releasing effector cells. The experiment is described as follows: IFN-γ ELISPOT assay on in vitro stimulated PBL/PBMC. The class given is cell-based, human. As to conditions: for specific T-cell responses among PBMC: HLA-A3+ healthy controls (HD); for specific T-cell responses among PBL: HLA-A3+ renal cell carcinoma (RCC) patients. The protocol: Peripheral blood lymphocytes (PBL) from HLA-A3^+ cancer patients or peripheral blood mononuclear cells (PBMC) from healthy controls were obtained from the University Hospital Herlev, Denmark. Cells were cryopreserved in FCS with 10% DMSO. Tissue typing was conducted at the Department of Clinical Immunology, The State Hospital, Copenhagen, Denmark. Informed consent was obtained from the patients before any of these measures.
To extend the sensitivity of the ELISPOT assay, PBL were stimulated once before analysis. At day 0, PBL were thawed and plated in 24-well plates (Nunc, Roskilde, Denmark) in X-Vivo medium (Cambrex Bio Science Copenhagen, Vallensbaek Strand, Denmark) with 5% heat-inactivated human serum in the presence of 10 μM peptide (GenScript, Scotch Plains, US). The following day 20 U/ml IL-2 (PeproTech, London, UK) was added to the cultures. The cultured cells were tested for reactivity in the ELISPOT on day 8.
The ELISPOT assay was used to quantify peptide epitope-specific INF-γ releasing effector cells as described previously (WO 2005/049073, Example 1.2). Briefly, nitrocellulose bottomed 96-well plates (MultiScreen MAIP N45, Millipore, Hedehusene, Denmark) were coated with anti-IFN-γ antibody (1-D1K, Mabtech, Nacka, Sweden). The wells were washed, blocked with X-vivo medium before adding 10^4 stimulator T2-A3 cells (with or without 10 μM peptide; Rho1L2: RLGLQVRKNK; Rho1: RAGLQVRKNK (GenScript, Scotch Plains, US)) and effector cells at different concentrations. The plates were incubated overnight. The following day, medium was discarded and the wells were washed prior to addition of biotinylated secondary antibody (7-B6-1-Biotin, Mabtech, Nacka, Sweden). The plates were incubated for 2 hrs, washed and Avidin-enzyme conjugate (AP-Avidin, Calbiochem, Life Technologies, Inc., Roskilde, Denmark) was added to each well. Plates were incubated at RT for 1 hr before the enzyme substrate NBT/BCIP (Gibco Life Technology, Taastrup, Denmark) was added to each well and incubated at RT for 5-10 min. The reaction was terminated with tap-water upon the emergency of dark purple spots. The spots were counted using the ImmunoSpot® Series 2.0 Analyzer (CTL Analyzers, LLC, Cleveland, US) and the peptide specific CTL frequency could be calculated from the numbers of spot-forming cells. The number of antigen-specific spots was calculated by subtracting the mean number of spots of the control wells from the mean number of spots in the positive wells; responses with a p-value<0.05 (Student t-test for unpaired samples) were considered as positive. The definition is in respect with the CIMT Monitoring Panel inter-laboratory testing project (www.c-imt.org).

Experiment [2] deals with HLA-A3+ melanoma cell line FM3. The experiment is described as follows: 51Cr-release cytotoxicity assay, FM3 target cells. The class given is cell-based, human. The settings on record: unlabeled T2-A3 cells pulsed with peptide, inhibitor to target ratio 20:1, FIG. 5b. The protocol:
as §1, §2
Conventional ^51Cr-release assays for CTL-mediated cytotoxicity were carried out as described elsewhere (Andersen et al., (1999) J Immunol 163:3812-3818). […]

No end group written: not given here.

Chain of HLA-A3 (P04439 25-365): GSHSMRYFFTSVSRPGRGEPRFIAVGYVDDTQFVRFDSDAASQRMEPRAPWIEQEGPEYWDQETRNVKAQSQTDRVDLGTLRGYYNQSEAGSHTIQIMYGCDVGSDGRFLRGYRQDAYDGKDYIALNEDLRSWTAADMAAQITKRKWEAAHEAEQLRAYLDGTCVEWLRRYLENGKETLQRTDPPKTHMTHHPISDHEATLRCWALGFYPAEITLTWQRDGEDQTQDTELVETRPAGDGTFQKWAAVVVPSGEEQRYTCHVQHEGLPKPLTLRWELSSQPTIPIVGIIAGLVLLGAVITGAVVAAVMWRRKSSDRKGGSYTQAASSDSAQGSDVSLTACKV
Chain of HLA-A3 (P61769 21-119 partner): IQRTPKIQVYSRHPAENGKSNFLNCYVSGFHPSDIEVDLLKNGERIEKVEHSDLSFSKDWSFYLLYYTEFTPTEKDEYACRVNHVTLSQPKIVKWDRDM

As to `CC[C@H](C)[C@H](N)C(=O)N[C@@H](CC(C)C)C(=O)N[C@@H](CCCNC(=N)N)C(=O)NCC(=O)N[C@@H](CO)C(=O)N[C@H](C(=O)N[C@@H](C)C(=O)N[C@@H](Cc1c[nH]cn1)C(=O)N[C@@H](CCCCN)C(=O)O)C(C)C` [Influenza NP265-273, ILRGSVAHK, reference compound], the EC50 at HLA-A3 stood at 0.3 µM.
RAGLQVRKNK [Rho1, RAGLQVRKNK]: the EC50 at HLA-A3 is over 40 µM. In the experiment with T2-A3 cells, the “lysis of peptide-pulsed T2-A3 cells by CTL clone 9” value is recorded as “effectively lysed” and the “lysis of peptide-pulsed T2-A3 cells by Rho1L2-stimulated CTL bulk cultures” value is on record as “efficiently”. Further, in experiment [1], the “specific T-cell responses among PBMC” value is recorded as “No responses were detected” and the “specific T-cell responses among PBL” value was “No responses were detected”.
RLGLQVRKNK [Rho1L2, RLGLQVRKNK]: in experiment [2], the “cold target inhibition of clone 9 killing of FM3 cells” value is given as “completely abrogated”. The EC50 at HLA-A3 was 4 µM. In the experiment with T2-A3 cells, the “lysis of peptide-pulsed T2-A3 cells by CTL clone 9” value is “effectively lysed” and the “lysis of peptide-pulsed T2-A3 cells by Rho1L2-stimulated CTL bulk cultures” value was “efficiently”. For the same compound, in experiment [1], the “specific T-cell responses among PBMC” value is listed as “No responses were detected” and the “specific T-cell responses among PBL” value is recorded as “No responses were detected”. Besides, the “patients with specific T-cell responses among PBL” value in experiment [1] (HLA-A3+ melanoma (MM) patients, PBL stimulated once in vitro, FIG. 3) was 3 out of 10.
